From patent publication US7323597B2, “Method for the production of diaminoxylene by continuous hydrogenation of liquid phthalonitrile” (BASF Aktiengesellschaft, priority 2003, dated 2008)

Assay: Solubility of IPN in MXDA
Format: physicochemical
Conditions: in MXDA (meta-xylylenediamine) as solvent, at 70° C.

Structure (SMILES): N#Cc1cccc(C#N)c1 [IPN, 1,3-dicyanobenzene]
- solubility of IPN in MXDA: approx. 20 % by weight
